Reference: patent US20170360991A1, “DRUG COMPOSITION AND COATING” (W. L. GORE & ASSOCIATES, INC., priority 2015, published 2017)
Where a name gives a salt, the structure may show the parent alone. Blank lines part the entries; values can stand above or below the compound they belong to.

How the values were obtained:
[1] = Ethylene oxide stability of cast paclitaxel-excipient films; format: physicochemical; details: mean of N = 3
Experimental: Approximately 30 mg of excipient was weighed into a 7 mL glass vial and 6 mL of 75/25 v/v acetone/water was added. A small stirrer bar was added to each vial and all samples were stirred overnight at room temperature to ensure full dissolution. Next, a stock solution of paclitaxel in the casting solvent was made at 5 mg/mL. A specific volume of paclitaxel stock and excipient stock was added to a new vial to achieve the target paclitaxel/excipient weight fraction listed in Table 6. The vials were then mixed and aliquoted to N=6 of the 20 mL vials (0.5 mL each). A paclitaxel-only control was also added to N=6 vials (0.25 mL each). All vials were left in a fume hood overnight to evaporate the solvents. After drying, the samples were capped with cellulose membranes cut to septa size to allow ethylene oxide and moisture permeability. All samples were packaged in breathable polyethylene pouches. N=3 of each paclitaxel/excipient mixture were kept as non-sterilized controls, and the remainder (N=3) were sent for ethylene oxide sterilization (see Test Method D). Non-sterilized controls were stored at room temperature prior to analysis. Paclitaxel content analysis was performed as described in the Evaluation Methods section. Percent paclitaxel recovery was calculated by normalizing to either theoretical initial loading or pre-sterilized samples.

[2] = acetone, ethanol and aqueous mixtures thereof
Text: As discussed in further detail below, coatings of the invention can be prepared by pipetting a solution containing therapeutic agent and excipient onto the device to be coated. […] Thus, in one embodiment the organic additive is not thiamine-HCl.

[3] = Early experiments on stability of organic additive in solution; format: physicochemical
Text: Thus, vanillin is not suitable as an organic additive for the present invention.

[4] = Ethylene oxide sterilization instability of paclitaxel-niacinamide formulations; details: additive formulated with paclitaxel as solid coating

% PTX recovery, pre vs. post ([1]; cast formulations post ethylene oxide sterilization, normalized to pre-sterilized samples): 101.7%
% PTX recovery, theoretical vs. pre ([1]; cast formulations pre-sterilization, normalized to theoretical loading): 98.2%
SMILES: CC(=O)O[C@H]1C(=O)[C@@]2(C)[C@H]([C@H](OC(=O)c3ccccc3)[C@]3(O)C[C@H](OC(=O)[C@H](O)[C@@H](NC(=O)c4ccccc4)c4ccccc4)C(C)=C1C3(C)C)[C@]1(OC(C)=O)CO[C@@H]1C[C@@H]2O [PTX only, paclitaxel]

solubility [2]: poor solubility
SMILES: Cc1ncc(C[n+]2csc(CCO)c2C)c(N)n1 [thiamine-HCl]

stability in solution [3]: easily degraded in solution
SMILES: COc1cc(C=O)ccc1O [vanillin]

SMILES: O=C([O-])c1ccccc1O.[Na+] [sodium salicylate]
paclitaxel degradation on ethylene oxide sterilization [4]: cause degradation of the paclitaxel
